Consider 13 compounds from ChEMBL document CHEMBL1201862, “PubChem BioAssay data set” (2004).

Assay in all cases: NCI-60 cell line screen, 48 h
Test [1] has as its system M14.
Test [2] concerns K562.
Test [3] concerns SW-620.
The subject of test [4] is HCT-116.
The test system of test [5] is PC-3.
The subject of test [6] is BT-549.
The test system of test [7] is HOP-92.
In test [8] the test system is SR.
The test system of test [9] is T47D.
The test system of test [10] is SK-MEL-2.
The subject of test [11] is A498.
In test [12] the test system is UACC-257.
For test [13], the system named is IGROV-1.
Test [14] has as its system SN12C.
The test system of test [15] is SK-OV-3.
The test system of test [16] is SF-268.
In test [17] the test system is NCI-H522.

SMILES strings stand for the structures.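 Dose response: 5 concentrations. Exposure: 48 h. Format: 96-well plates. Endpoint: linear interpolation; highest concentration if not reached. Here, GI50 denotes the concentration required for 50% inhibition of growth.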 Calls of active or inactive are those of the source. Rule as the data show it: active = GI50 up to about 1.1 µM and inactive = higher.

`C=C[C@H]1CN2CCc3c([nH]c4c([C@@H]5CCCN5C)c(O)ccc34)[C@@H]2C[C@@H]1C[C@H]1c2[nH]c3ccccc3c2CCN1C`: the GI50 in test [1] was 0.307 µM (active); in test [2] it was 0.255 µM (active); in [3], 1.23 µM (inactive); in [4] it was 0.239 µM (active); in test [5], 1.41 µM (inactive); in test [6], 1.75 µM (inactive). Further, the GI50 in [7] is 1.19 µM (inactive); in [8], 0.253 µM (active); in [9], 1.48 µM (inactive); in [10], 1.91 µM (inactive); in test [11], 1.63 µM (inactive); in test [12] it was 3.18 µM (inactive). In addition, the GI50 was 1.31 µM (inactive) in test [13], 1.54 µM (inactive) in test [14], 1.62 µM (inactive) in [15] and 1.48 µM (inactive) in test [16].

Regarding `CCOC(=O)CC(c1ccccc1)C(C)(C(=O)OCC)C(=O)OCC` (stereo not drawn), the GI50 in test [1] was > 100 µM (inactive); in test [2], > 100 µM (inactive); in [3] it was > 100 µM (inactive); in test [4] it was > 100 µM (inactive); in [5], 77.6 µM (inactive); in test [6] it was 70.1 µM (inactive). The GI50 in test [8] was 61.2 µM (inactive); in test [9], 78.2 µM (inactive); in [10], > 100 µM (inactive); in test [12], > 100 µM (inactive); in [13] it was > 100 µM (inactive); in test [14], > 100 µM (inactive). Also, the GI50 in [15], in test [16] and in [17] was > 100 µM (inactive) each time.

Take `Cc1ccc(S(=O)(=O)N/N=C2/C3CCC(C3)C2c2ccccc2)cc1` (stereo not drawn): the GI50 in test [1], in test [2], in [3], in test [4], in test [5] and in test [6] was > 100 µM (inactive) in each case. Moreover, the GI50 in [7], in [8], in [9], in test [10], in [12] and in [13] was > 100 µM (inactive) in each case. Moreover, the GI50 in test [14], in test [15], in [16] and in test [17] was > 100 µM (inactive) in each case.

`C/C(CC1C2CCCC1C2)=N\NC(N)=O` (stereo not drawn): the GI50 in test [1], in test [3], in [4], in test [5], in test [6] and in [7] was > 100 µM (inactive) throughout. The GI50 in [8], in test [9], in test [10], in test [12], in [13] and in test [14] was > 100 µM (inactive) throughout. In addition, the GI50 in test [15], in [16] and in [17] was > 100 µM (inactive) throughout.

In the case of `CN(C)CCCCN1c2ccccc2Sc2ccc(N=[N+]=[N-])cc21`, the GI50 is 1.67 µM (inactive) in test [1]; 2.05 µM (inactive) in test [2]; 4.82 µM (inactive) in test [3]; 4.21 µM (inactive) in test [4]; 3.15 µM (inactive) in test [5]; 11.8 µM (inactive) in test [6]. For the same compound, the GI50 is 3.56 µM (inactive) in [7]; 4.32 µM (inactive) in [9]; 3.08 µM (inactive) in test [10]; 8.73 µM (inactive) in [11]; 1.92 µM (inactive) in [12]; 3.08 µM (inactive) in [13]. In addition, the GI50 was 8.43 µM (inactive) in test [14], 12.9 µM (inactive) in [15], 5.97 µM (inactive) in test [16] and 4.09 µM (inactive) in [17].

Take `O=C1NC(=O)/C(=C/c2ccc(S(=O)(=O)N/N=C/c3ccccc3)cc2)N1`: the GI50 in test [1], in test [2], in [3], in [4], in test [5] and in test [6] was > 100 µM (inactive) throughout. Also, the GI50 in test [7] was > 100 µM (inactive); in [9], > 100 µM (inactive); in [10], > 100 µM (inactive); in [11], 2.75 µM (inactive); in [12] it was > 100 µM (inactive); in [13], > 100 µM (inactive). Further, the GI50 in [14], in test [15] and in [16] was > 100 µM (inactive) each time.

Turning to `Nc1c2ccccc2nc2ccc(C(=O)Nc3ccc(S(N)(=O)=O)cc3)cc12`, the GI50 in test [1], in [2], in test [3], in test [4], in [5] and in test [6] was > 100 µM (inactive) each time. The GI50 in test [7], in [8], in test [9], in test [10], in [12] and in test [13] was > 100 µM (inactive) in each case. The GI50 in test [14], in test [15], in test [16] and in [17] was > 100 µM (inactive) each time.

For `Cc1c2c(n(CCc3ccccc3)c1C)N(C)N=C(C#N)S2(=O)=O`, the GI50 in test [1] was > 100 µM (inactive); in test [2], > 10 µM (inactive); in [3], > 100 µM (inactive); in test [4], > 100 µM (inactive); in test [5] it was > 100 µM (inactive); in test [6] it was > 100 µM (inactive). Besides, the GI50 in test [8] was > 100 µM (inactive); in [9], > 100 µM (inactive); in [10], > 100 µM (inactive); in test [11], > 10 µM (inactive); in test [12] it was > 100 µM (inactive); in test [13] it was > 100 µM (inactive). The GI50 in [14], in test [15], in test [16] and in [17] was > 100 µM (inactive) in each case.

For the compound `Cn1c(=O)c2c(nc(N/N=C3/SCC(=O)N3Cc3ccccc3)n2C)n(C)c1=O`, the GI50 in test [1] was > 100 µM (inactive); in [2], < 0.01 µM (active); in [4], > 100 µM (inactive); in [5], 39.2 µM (inactive); in test [6] it was 74 µM (inactive); in test [7], 5.9 µM (inactive). Further, the GI50 is 61.4 µM (inactive) in test [9]; 58.7 µM (inactive) in test [10]; > 100 µM (inactive) in [11]; > 100 µM (inactive) in test [12]; 34.3 µM (inactive) in test [13]; > 100 µM (inactive) in test [14]. The GI50 in test [15] was 43.5 µM (inactive); in test [16], 60.7 µM (inactive); in test [17], 71.4 µM (inactive).

For the compound `Fc1ccccc1C1SCc2nc3cc4ccccc4cc3n21` (stereo not drawn), the GI50 was > 100 µM (inactive) in [1]; > 100 µM (inactive) in test [2]; 85.7 µM (inactive) in test [3]; 24.9 µM (inactive) in test [4]; 78.3 µM (inactive) in [5]; > 100 µM (inactive) in [6]. Also, the GI50 in test [9] was 14 µM (inactive); in [10] it was > 100 µM (inactive); in [12] it was 61.1 µM (inactive); in [13] it was 62.5 µM (inactive); in [14], 36.1 µM (inactive); in [15], 71.6 µM (inactive). The GI50 in test [16] was 45.3 µM (inactive); in test [17], 18.7 µM (inactive).

Turning to `Cn1nc(C(=O)N2CC(CCl)c3c2cc(N)c2ccccc32)cc1NC(=O)Nc1cc(C(=O)N2CC(CCl)c3c2cc(N)c2ccccc32)nn1C` (stereo not drawn), the GI50 is 0.349 µM (active) in test [1]; 0.231 µM (active) in [2]; 0.0271 µM (active) in test [3]; 0.0818 µM (active) in [4]; 0.165 µM (active) in test [5]; 0.0718 µM (active) in [6]. Besides, the GI50 was < 0.01 µM (active) in test [8]; < 0.01 µM (active) in [9]; 0.13 µM (active) in test [10]; 8.69 µM (inactive) in test [11]; 0.521 µM (active) in test [12]; 0.0323 µM (active) in [14]. In addition, the GI50 in test [15] was 0.3 µM (active); in test [16], 0.0275 µM (active).

For the compound `CC(=O)O[C@H]1[C@H](OC(=O)CC(C)(O)CC(=O)O)C[C@]2(C)C3=C(CCC2C1(C)C)[C@]1(C)CC[C@H]([C@H]2CC[C@H](C(C)(C)O)OC2O)[C@@]1(C)[C@@H](O)C3` (stereo partly drawn), the GI50 in test [1] was 17.8 µM (inactive); in test [2], 26.2 µM (inactive); in test [3] it was 14.1 µM (inactive); in test [4] it was 20.7 µM (inactive); in test [5] it was 18.3 µM (inactive); in test [6], 15.1 µM (inactive). Further, the GI50 was 16.9 µM (inactive) in test [7]; 25.6 µM (inactive) in [8]; 20.9 µM (inactive) in test [9]; 18.8 µM (inactive) in [10]; 12.9 µM (inactive) in test [11]; 19.4 µM (inactive) in test [12]. For the same compound, the GI50 in test [13] is 17.1 µM (inactive); in test [14], 17.5 µM (inactive); in test [15], 16.7 µM (inactive).

Take `CCCCN=C(OC1C=CCCC1)SC` (stereo not drawn): the GI50 in [1], in test [2], in test [3], in test [4], in [5] and in test [6] was > 100 µM (inactive) in each case. Further, the GI50 in test [7] is 43.4 µM (inactive); in test [8], > 100 µM (inactive); in [9], > 100 µM (inactive); in [11], 51.8 µM (inactive); in [12], > 100 µM (inactive); in test [13] it was > 100 µM (inactive). In addition, the GI50 in test [14], in test [15] and in [16] was > 100 µM (inactive) in each case.
